Data as given in ChEMBL document CHEMBL4665648, “Potent and selective inhibitors of receptor-interacting protein kinase 1 that lack an aromatic back pocket group” (Bioorg Med Chem Lett, 2019).
Values after ≈ are worked out from the molar mass of the structure shown.

Tests used:
[1] = Inhibition of necroptosis in human HT-29 cells assessed as reduction in TNFalpha/BV6/zVAD-fmk-induced cell death incubated for 18 hrs by Cell Titer Glo luminescent cell viability assay; type: functional, cell-based; details: HT-29, 18 h
[2] = target: T1, Receptor-interacting serine/threonine-protein kinase 1 (Homo sapiens, UniProt Q13546); experiment: Inhibition of recombinant human His/GST-tagged RIPK1 (2 to 257 residues) expressed in insect expression system incubated for 2 hrs by fluorescence polarization assay; details: read-out: Ki(app)
T1 sequence (Q13546 whole entry): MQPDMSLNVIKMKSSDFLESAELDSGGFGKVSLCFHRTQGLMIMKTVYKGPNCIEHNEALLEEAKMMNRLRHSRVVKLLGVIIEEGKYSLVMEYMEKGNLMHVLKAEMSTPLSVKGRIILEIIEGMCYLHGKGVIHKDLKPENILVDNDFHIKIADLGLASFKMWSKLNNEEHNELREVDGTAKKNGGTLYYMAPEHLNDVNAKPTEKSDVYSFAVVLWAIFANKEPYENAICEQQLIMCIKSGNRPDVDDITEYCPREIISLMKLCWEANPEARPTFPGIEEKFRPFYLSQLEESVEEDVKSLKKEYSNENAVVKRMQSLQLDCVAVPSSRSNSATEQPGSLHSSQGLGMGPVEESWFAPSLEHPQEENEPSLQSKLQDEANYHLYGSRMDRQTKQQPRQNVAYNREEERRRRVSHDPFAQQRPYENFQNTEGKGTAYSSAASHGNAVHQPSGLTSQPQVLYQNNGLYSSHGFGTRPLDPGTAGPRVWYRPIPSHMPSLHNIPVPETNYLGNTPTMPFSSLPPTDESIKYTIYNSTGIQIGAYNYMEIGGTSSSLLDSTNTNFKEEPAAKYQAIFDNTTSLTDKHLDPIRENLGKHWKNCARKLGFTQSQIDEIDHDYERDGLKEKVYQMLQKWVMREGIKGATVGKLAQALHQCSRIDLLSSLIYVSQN

[3] = Kinetic solubility of compound at pH 7.4; type: physicochemical; details: buffer, read-out: Kinetic_solubility
[4] = Lipophilicity, logD of compound at pH 7.4; type: physicochemical; details: buffer

SMILES | Ki [2] [nM] | solubility kinetic [3] [µM] | logD [4] | EC50 [1] [nM]
CN1C(=O)[C@@H](NC(=O)c2n[nH]c3c2C[C@H](C(C)(C)C)CC3)COc2ccccc21 | – | – | – | 290
CN1C(=O)[C@@H](NC(=O)c2n[nH]c3c2CC(n2cccn2)CC3)COc2ccccc21 (mixture of isomers) | – | – | – | 4100
CN1C(=O)[C@@H](NC(=O)c2nnc3ccc(C(F)(F)C(F)(F)F)nn23)COc2ccccc21 | – | 164 (≈ 74.8 µg/mL) | 1.6 | 130
CN1C(=O)[C@@H](NC(=O)c2n[nH]c3c2CCCC3)COc2ccccc21 | – | – | – | 15000
C[C@H]1CCc2[nH]nc(C(=O)N[C@H]3COc4ccccc4N(C)C3=O)c2C1 | – | – | – | 400
CN1C(=O)[C@@H](NC(=O)c2n[nH]c3c2CCC2(CC2)C3)COc2ccccc21 | – | – | – | > 20000
CN1C(=O)[C@@H](NC(=O)c2n[nH]c3c2CC(c2ccccc2)CC3)COc2ccccc21 (mixture of isomers) | – | – | – | 520
C[C@@H]1CCc2[nH]nc(C(=O)N[C@H]3COc4ccccc4N(C)C3=O)c2C1 | – | – | – | 130
CN1C(=O)[C@@H](NC(=O)c2n[nH]c3c2CC2CC2C3)COc2ccccc21 (mixture of isomers) | – | – | – | 7000
CN1C(=O)[C@@H](NC(=O)c2nnc3ccc(C(F)(F)F)nn23)COc2ccccc21 | – | 160 (≈ 65 µg/mL) | 1 | 2400
CN1C(=O)[C@@H](NC(=O)c2ncn3ccc(C(F)(F)F)cc23)COc2ccccc21 | 5 | – | – | 12
CN1C(=O)[C@@H](NC(=O)c2n[nH]c3c2C2CC2CC3)COc2ccccc21 (single isomer, unassigned; diastereomer 1) | – | – | – | 6900

Continued, in another order:

Ki [2] [nM] | solubility kinetic [3] [µM] | logD [4] | SMILES | EC50 [1] [nM]
7 | – | – | CN1C(=O)[C@@H](NC(=O)c2n[nH]c3c2C[C@H](C(F)(F)F)CC3)COc2ccccc21 | 43
42 | – | – | CN1C(=O)[C@@H](NC(=O)c2n[nH]c3c2CC(C)(C)CC3)COc2ccccc21 | 170
– | 3.4 (≈ 1.29 µg/mL) | 3.5 | CC(C)c1cnc2[nH]nc(C(=O)N[C@H]3COc4ccccc4N(C)C3=O)c2c1 | 390
5 | – | – | CN1C(=O)[C@@H](NC(=O)c2n[nH]c3ccc(C(F)(F)F)cc23)COc2ccccc21 | 28
– | 59 (≈ 23.9 µg/mL) | 3.3 | CN1C(=O)[C@@H](NC(=O)c2n[nH]c3ncc(C(F)(F)F)cc23)COc2ccccc21 | 580
63 | – | – | CN1C(=O)[C@@H](NC(=O)c2nn(C)c3c2C[C@H](C(F)(F)F)CC3)COc2ccccc21 | 500
> 10000 | – | – | CN1C(=O)[C@@H](NC(=O)c2nnc[nH]2)COc2ccccc21 | > 20000
> 10000 | – | – | CN1C(=O)[C@@H](NC(=O)c2n[nH]c3c2CCC(C)(C)C3)COc2ccccc21 | > 20000
– | 99 (≈ 40.5 µg/mL) | 1.5 | CN1C(=O)[C@@H](NC(=O)c2nnn3c2C[C@H](C(F)(F)F)CC3)COc2ccccc21 | 210
– | 57.1 | 2 | CN1C(=O)[C@@H](NC(=O)c2nnn3c2CC(C(F)(F)C(F)(F)F)CC3)COc2ccccc21 (mixture of isomers) | 64
